Data on 2 compounds can be found in patent US7524851B2 (Robert Bosch Gesellschaft fur Medizinische Forschung (RBMF), priority 2003, dated 2009).

Type in all cases: cell-based, human
Test [1] deals with CD45RA T cells. Briefly: Annexin V/propidium iodide FACS apoptosis of stimulated CD45RA T cells. Particulars: rIL-2, anti-CD3 plus anti-CD28; after 5 days. An excerpt: Isolation of primary CD4^+ T lymphocytes and lamina propria cells: Human peripheral blood mononuclear cells (PBMCs) from healthy volunteers (25-42 years of age) and patients with Crohn's disease (31-65 years of age) were isolated using Ficoll-Hypaque gradients. PBMCs were further purified using CD4 monoclonal antibodies attached to immunomagnetic beads according to the manufacturer's protocol, followed by treatment with Detachabead (Dynal; Oslo, Norway). In some cases, CD4^+ T cells were further separated by negative selection techniques using CD45RO or CD45RA monoclonal antibodies (PharMingen; Heidelberg, Germany) and immunomagnetic beads (Dynal). […]
For FACS analysis, apoptotic cells were detected by staining with annexin V and propidium iodide using the Annexin V FITC Apoptosis Detection Kit I (PharMingen) (Atreya et al., Nat. Med. 6:583-588 (2000)). […] To verify the results obtained with the annexin V/propidium iodide staining, analysis of T cells displaying DNA fragmentation was also determined by the Nicoletti technique, as described in (Nicoletti et al., J. Immunol. Methods 139:271-279 (1991)). […] Finally, cells were analyzed on a FACScan flow cytometer. […]

Test [2] concerns caspase-8. Briefly: Fluorometric protease assay, caspase-8 activity in T lymphocytes. Particulars: CD3/CD28/rIL-2 stimulated T cells, 5 days; on average. Here is the method:
Caspase-3 proteolytic activity was determined at day 5 by the caspase-3/CPP 32 fluorometric protease assay (Bio Source; Worcester, Mass., USA) according to the manufacturer's protocol. Caspase-8 and caspase-9 proteolytic activity were assessed in parallel by the corresponding fluorometric protease assays (Bio Source).

Test [3] relates to Rac1. Briefly: Rac1 protein expression (Western blot, immunocytochemistry). Here is the method:
Western blots: Equal amounts of extract (30 μg) were added to 8 μl of electrophoresis sample buffer (Firma Roth; Karlsruhe, Germany). After boiling, the extracts were loaded on 15% SDS-PAGE gels and electrophoretically separated. Proteins were transferred to nitrocellulose membranes, and detection was performed with the ECL Western blotting analysis system (Amersham). […]
Immunocytochemical analysis: Immunocytochemistry was performed as described in Atreya et al., supra and Finotto et al., J. Exp. Med. 193:1247-1260 (2001)). […] Cells were rinsed with PBS, and nuclei were counterstained with Hoechst33342 blue for fluorescence (Molecular Probes; Burlingame, Calif., USA). Finally, cells were washed in PBS and analyzed with an Olympus Microscope. Six to ten high-power fields were finally analyzed in all patients per condition, and selected high-power fields were further analyzed by confocal laser microscopy.
A general note: A western blot detects proteins with antibodies after separation by electrophoresis.

Each structure is given as a SMILES string.

As for `Sc1ncnc2nc[nH]c12` [6-MP, 6-mercaptopurine], the “induction of annexin V-positive, propidium iodide-negative naive CD45RA T cells” value in test [1] is “significant induction”. Also, the “induction of caspase-8” value in test [2] was “less pronounced”. In addition, the “expression of Rac1” value in test [3] was “not significantly suppressed”.
`Cn1cnc([N+](=O)[O-])c1Sc1ncnc2nc[nH]c12` [azathioprine, Azathioprine]: in test [1], the “induction of annexin V-positive, propidium iodide-negative naive CD45RA T cells” value is recorded as “significant induction”. Moreover, the “expression of Rac1” value in test [3] was “not significantly suppressed”.
